Measured values from ChEMBL document CHEMBL1201861, “Genomics of Drug Sensitity in Cancer screening data, Wellcome Trust Sanger Institute”.

Columns and labels:
Format in all cases: functional, cell-based
[1] = system: IGR-1; test: cells; settings: Homo sapiens;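 note: growth inhibition of human IGR-1 cells, read out with a cell viability assay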
Description: SANGER: Inhibition of human IGR-1 cell growth in a cell viability assay.

[2] = system: NCI-H810; test: cells; settings: Homo sapiens;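 note: IC50 reflects inhibition of cancer cell line growth, read out with a cell viability assay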
Description: SANGER: Inhibition of human NCI-H810 cell growth in a cell viability assay.

[3] = system: 786-0; test: cells; settings: Homo sapiens
Description: SANGER: Inhibition of human 786-0 cell growth in a cell viability assay.

[4] = system: D-392MG; test: cells; settings: Homo sapiens
[5] = system: D-566MG; test: cells; settings: Homo sapiens
[6] = system: DMS-114; test: cells; settings: Homo sapiens
[7] = system: EM-2; test: cells; settings: Homo sapiens;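 note: growth inhibition of EM-2 cells, read out with a cell viability assay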
Description: SANGER: Inhibition of human EM-2 cell growth in a cell viability assay.

[8] = system: ES7; test: cells; settings: Homo sapiens;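 note: growth inhibition of cultured human ES7 cells, read out as cell viability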
Description: SANGER: Inhibition of human ES7 cell growth in a cell viability assay.

[9] = system: K5; test: cells; settings: Homo sapiens
Description: SANGER: Inhibition of human K5 cell growth in a cell viability assay.

[10] = system: L-363; test: cells; settings: Homo sapiens
Description: SANGER: Inhibition of human L-363 cell growth in a cell viability assay.

[11] = system: LB1047-RCC; test: cells; settings: Homo sapiens
Description: SANGER: Inhibition of human LB1047-RCC cell growth in a cell viability assay.

[12] = system: MEG-01; test: cells; settings: Homo sapiens;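 note: growth inhibition of MEG-01 cells, read out by a cell viability assay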
Description: SANGER: Inhibition of human MEG-01 cell growth in a cell viability assay.

[13] = system: MHH-NB-11; test: cells; settings: Homo sapiens;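 note: growth inhibition of human MHH-NB-11 cells, read out by a cell viability assay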
Description: SANGER: Inhibition of human MHH-NB-11 cell growth in a cell viability assay.

[14] = system: NCI-H1581; test: cells; settings: Homo sapiens;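 note: cell growth inhibition read out by a viability assay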
Description: SANGER: Inhibition of human NCI-H1581 cell growth in a cell viability assay.

[15] = system: NCI-H446; test: cells; settings: Homo sapiens;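 note: growth inhibition of NCI-H446 cells determined by a cell viability assay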
Description: SANGER: Inhibition of human NCI-H446 cell growth in a cell viability assay.

[16] = system: A2780; test: cells; settings: Homo sapiens;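 note: growth inhibition of A2780 cells, read out with a cell viability assay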
Description: SANGER: Inhibition of human A2780 cell growth in a cell viability assay.

[17] = system: A-427; test: cells; settings: Homo sapiens;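 note: growth inhibition of human A-427 cells, read out by a cell viability assay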
Description: SANGER: Inhibition of human A427 cell growth in a cell viability assay.

[18] = system: AGS; test: cells; settings: Homo sapiens;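 note: growth inhibition of AGS cells, determined with a cell viability assay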
Description: SANGER: Inhibition of human AGS cell growth in a cell viability assay.

[19] = system: CHP-212; test: cells; settings: Homo sapiens
Description: SANGER: Inhibition of human CHP-212 cell growth in a cell viability assay.

[20] = system: KU812 cell line; test: cells; settings: Homo sapiens;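 note: growth inhibition of KU812 cells, read out with a cell viability assay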
Description: SANGER: Inhibition of human KU812 cell growth in a cell viability assay.

[21] = system: LXF-289 cell line; test: cells; settings: Homo sapiens
Description: SANGER: Inhibition of human LXF-289 cell growth in a cell viability assay.

[22] = system: A253 cell line; test: cells; settings: Homo sapiens;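 note: growth inhibition of A253 cells, read out with a cell viability assay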
Description: SANGER: Inhibition of human A253 cell growth in a cell viability assay.

[23] = system: BC1 cell line; test: SANGER: Inhibition of human BC-1 cell growth in a cell viability assay.
[24] = system: COLO-824; test: cells; settings: Homo sapiens
Description: SANGER: Inhibition of human COLO-824 cell growth in a cell viability assay.

[25] = system: COR-L88; test: cells; settings: Homo sapiens;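 note: growth inhibition of COR-L88 cells, read out with a cell viability assay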
Description: SANGER: Inhibition of human COR-L88 cell growth in a cell viability assay.

[26] = system: CaR-1; test: cells; settings: Homo sapiens;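 note: growth inhibition of human CaR-1 cancer cells, read out with a cell viability assay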
Description: SANGER: Inhibition of human CaR-1 cell growth in a cell viability assay.

[27] = system: DMS-273; test: cells; settings: Homo sapiens
Description: SANGER: Inhibition of human DMS-273 cell growth in a cell viability assay.

[28] = system: DSH1; test: cells; settings: Homo sapiens;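 note: growth inhibition of human DSH1 cells, measured with a cell viability readout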
Description: SANGER: Inhibition of human DSH1 cell growth in a cell viability assay.

[29] = system: EW-18; test: cells; settings: Homo sapiens;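 note: growth inhibition of EW-18 cells, read out by a cell viability assay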
Description: SANGER: Inhibition of human EW-18 cell growth in a cell viability assay.

[30] = system: GCT; test: cells; settings: Homo sapiens;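 note: GCT cell line proliferation inhibition, read out with a cell viability assay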
Description: SANGER: Inhibition of human GCT cell growth in a cell viability assay.

[31] = system: GI-1; test: cells; settings: Homo sapiens;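 note: growth inhibition of human GI-1 cells, measured with a cell viability readout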
Description: SANGER: Inhibition of human GI-1 cell growth in a cell viability assay.

[32] = system: H-EMC-SS; test: cells; settings: Homo sapiens
Description: SANGER: Inhibition of human H-EMC-SS cell growth in a cell viability assay.

[33] = system: HCC1569; test: cells; settings: Homo sapiens;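 note: growth inhibition of human HCC1569 cells, read out with a cell viability assay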
Description: SANGER: Inhibition of human HCC1569 cell growth in a cell viability assay.

[34] = system: HEL; test: cells; settings: Homo sapiens;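 note: growth inhibition of HEL cells, read out with a cell viability assay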
Description: SANGER: Inhibition of human HEL cell growth in a cell viability assay.

[35] = system: HN; test: cells; settings: Homo sapiens
Description: SANGER: Inhibition of human HN cell growth in a cell viability assay.

[36] = system: HSC-2; test: cells; settings: Homo sapiens;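 note: growth inhibition of human HSC-2 cells, read out by a cell viability assay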
Description: SANGER: Inhibition of human HSC-2 cell growth in a cell viability assay.

[37] = system: HT55; test: cells; settings: Homo sapiens;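 note: cell viability readout measuring growth inhibition of human HT55 cells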
Description: SANGER: Inhibition of human HT55 cell growth in a cell viability assay.

[38] = system: HTC-C3; test: cells; settings: Homo sapiens;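 note: inhibition of cell growth, read out with a cell viability assay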
Description: SANGER: Inhibition of human HTC-C3 cell growth in a cell viability assay.

[39] = system: Huh-7; test: cells; settings: Homo sapiens;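 note: HuH-7 cell growth inhibition, read out with a cell viability assay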
Description: SANGER: Inhibition of human HuH-7 cell growth in a cell viability assay.

[40] = system: IA-LM; test: cells; settings: Homo sapiens;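 note: cell viability assay measuring growth inhibition of human IA-LM cells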
Description: SANGER: Inhibition of human IA-LM cell growth in a cell viability assay.

[41] = system: IST-SL1; test: cells; settings: Homo sapiens;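 note: growth inhibition of human IST-SL1 cells, read out with a cell viability assay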
Description: SANGER: Inhibition of human IST-SL1 cell growth in a cell viability assay.

[42] = system: JAR; test: cells; settings: Homo sapiens;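 note: growth inhibition of human JAR cells determined with a cell viability assay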
Description: SANGER: Inhibition of human JAR cell growth in a cell viability assay.

[43] = system: JVM-3; test: cells; settings: Homo sapiens;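 note: growth inhibition of human JVM-3 cells, read out with a cell viability assay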
Description: SANGER: Inhibition of human JVM-3 cell growth in a cell viability assay.

[44] = system: KARPAS-45; test: cells; settings: Homo sapiens;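 note: inhibition of cell line growth, read out through a viability assay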
Description: SANGER: Inhibition of human KARPAS-45 cell growth in a cell viability assay.

[45] = system: LCLC-103H cell line; test: cells; settings: Homo sapiens
Description: SANGER: Inhibition of human LCLC-103H cell growth in a cell viability assay.

[46] = system: LCLC-97TM1; test: cells; settings: Homo sapiens;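 note: cell viability assay measuring growth inhibition of human LCLC-97TM1 cells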
Description: SANGER: Inhibition of human LCLC-97TM1 cell growth in a cell viability assay.

[47] = system: LU-139; test: cells; settings: Homo sapiens
Description: SANGER: Inhibition of human LU-139 cell growth in a cell viability assay.

[48] = system: MDA-MB-453; test: cells; settings: Homo sapiens
Description: SANGER: Inhibition of human MDA-MB-453 cell growth in a cell viability assay.

[49] = system: MN-60; test: cells; settings: Homo sapiens;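 note: growth inhibition of the MN-60 cell line, determined with a cell viability assay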
Description: SANGER: Inhibition of human MN-60 cell growth in a cell viability assay.

[50] = system: MOLT-13; test: cells; settings: Homo sapiens;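 note: IC50 for suppression of MOLT-13 cell growth, read out with a cell viability assay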
Description: SANGER: Inhibition of human MOLT-13 cell growth in a cell viability assay.

[51] = system: MPP-89; test: cells; settings: Homo sapiens;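 note: growth inhibition of human MPP-89 cells, read out with a cell viability assay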
Description: SANGER: Inhibition of human MPP-89 cell growth in a cell viability assay.

[52] = system: NCI-H1666; test: cells; settings: Homo sapiens;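 note: growth inhibition of the cell line, read out with a cell viability assay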
Description: SANGER: Inhibition of human NCI-H1666 cell growth in a cell viability assay.

[53] = system: NCI-H1693; test: cells; settings: Homo sapiens;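 note: growth inhibition of the human cell line, read out with a cell viability assay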
Description: SANGER: Inhibition of human NCI-H1693 cell growth in a cell viability assay.

[54] = system: NCI-H23; test: cells; settings: Homo sapiens;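 note: cell viability assay measuring growth inhibition of NCI-H23 cells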
Description: SANGER: Inhibition of human NCI-H23 cell growth in a cell viability assay.

[55] = system: NCI-H292; test: cells; settings: Homo sapiens;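 note: growth inhibition of NCI-H292 cells, read out with a cell viability assay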
Description: SANGER: Inhibition of human NCI-H292 cell growth in a cell viability assay.

[56] = system: NCI-H520; test: cells; settings: Homo sapiens;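 note: growth inhibition of NCI-H520 cells, measured by a cell viability assay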
Description: SANGER: Inhibition of human NCI-H520 cell growth in a cell viability assay.

[57] = system: SNU1; test: cells; settings: Homo sapiens;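 note: growth inhibition of human NCI-SNU-1 cells, measured with a cell viability assay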
Description: SANGER: Inhibition of human NCI-SNU-1 cell growth in a cell viability assay.

[58] = system: NOMO-1; test: cells; settings: Homo sapiens;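 note: growth inhibition of human NOMO-1 cells measured by a cell viability assay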
Description: SANGER: Inhibition of human NOMO-1 cell growth in a cell viability assay.

[59] = system: NY; test: cells; settings: Homo sapiens
Description: SANGER: Inhibition of human NY cell growth in a cell viability assay.

[60] = system: OC-314; test: cells; settings: Homo sapiens
Description: SANGER: Inhibition of human OC-314 cell growth in a cell viability assay.

[61] = system: OCUB-M; test: cells; settings: Homo sapiens;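 note: growth inhibition of the cancer cell line, read out through a cell viability assay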
Description: SANGER: Inhibition of human OCUB-M cell growth in a cell viability assay.

[62] = system: OE33; test: cells; settings: Homo sapiens;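 note: growth inhibition of human OE33 cells, measured by a cell viability assay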
Description: SANGER: Inhibition of human OE33 cell growth in a cell viability assay.

[63] = system: OS-RC-2; test: cells; settings: Homo sapiens;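 note: growth inhibition of human OS-RC-2 cells, measured by a cell viability assay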
Description: SANGER: Inhibition of human OS-RC-2 cell growth in a cell viability assay.

[64] = system: OVCAR-8; test: cells; settings: Homo sapiens;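 note: growth inhibition of human OVCAR-8 cells, read out by a cell viability assay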
Description: SANGER: Inhibition of human OVCAR-8 cell growth in a cell viability assay.

[65] = system: P30-OHK; test: cells; settings: Homo sapiens;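 note: growth inhibition of the P30-OHK cell line, read out with a cell viability assay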
Description: SANGER: Inhibition of human P30-OHK cell growth in a cell viability assay.

[66] = system: PSN1; test: cells; settings: Homo sapiens;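 note: suppression of growth of human PSN1 cells, read out by a cell viability assay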
Description: SANGER: Inhibition of human PSN1 cell growth in a cell viability assay.

[67] = system: RS4-11; test: cells; settings: Homo sapiens;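 note: growth inhibition of RS4-11 cells, read out by a cell viability assay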
Description: SANGER: Inhibition of human RS4-11 cell growth in a cell viability assay.

[68] = system: SBC-1; test: cells; settings: Homo sapiens;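 note: cell viability assay measuring growth inhibition of the SBC-1 cell line, IC50 being the concentration that halves growth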
Description: SANGER: Inhibition of human SBC-1 cell growth in a cell viability assay.

[69] = system: SK-LU-1; test: cells; settings: Homo sapiens
Description: SANGER: Inhibition of human SK-LU-1 cell growth in a cell viability assay.

[70] = system: SK-MEL-2; test: cells; settings: Homo sapiens
Description: SANGER: Inhibition of human SK-MEL-2 cell growth in a cell viability assay.

[71] = system: SK-N-AS; test: cells; settings: Homo sapiens
Description: SANGER: Inhibition of human SK-N-AS cell growth in a cell viability assay.

[72] = system: SK-N-FI; test: cells; settings: Homo sapiens
Description: SANGER: Inhibition of human SK-N-FI cell growth in a cell viability assay.

[73] = system: SNU-449; test: cells; settings: Homo sapiens
Description: SANGER: Inhibition of human SNU-449 cell growth in a cell viability assay.

[74] = system: SW780; test: cells; settings: Homo sapiens
Description: SANGER: Inhibition of human SW780 cell growth in a cell viability assay.

[75] = system: SW948; test: cells; settings: Homo sapiens
Description: SANGER: Inhibition of human SW948 cell growth in a cell viability assay.

[76] = system: TE-1; test: cells; settings: Homo sapiens
Description: SANGER: Inhibition of human TE-1 cell growth in a cell viability assay.

[77] = system: 5637; test: cells; settings: Homo sapiens
Description: SANGER: Inhibition of human 5637 cell growth in a cell viability assay.

[78] = system: 8305C; test: cells; settings: Homo sapiens
Description: SANGER: Inhibition of human 8305C cell growth in a cell viability assay.

[79] = system: 8505C; test: cells; settings: Homo sapiens
Description: SANGER: Inhibition of human 8505C cell growth in a cell viability assay.

[80] = system: A3-KAW; test: cells; settings: Homo sapiens
Description: SANGER: Inhibition of human A3-KAW cell growth in a cell viability assay.

[81] = system: A673; test: cells; settings: Homo sapiens
Description: SANGER: Inhibition of human A673 cell growth in a cell viability assay.

[82] = system: ATN-1; test: cells; settings: Homo sapiens
Description: SANGER: Inhibition of human ATN-1 cell growth in a cell viability assay.

[83] = system: BB49-HNC; test: cells; settings: Homo sapiens
Description: SANGER: Inhibition of human BB49-HNC cell growth in a cell viability assay.

[84] = system: C8166; test: cells; settings: Homo sapiens
Description: SANGER: Inhibition of human C8166 cell growth in a cell viability assay.

[85] = system: CAL-39; test: cells; settings: Homo sapiens
Description: SANGER: Inhibition of human CAL-39 cell growth in a cell viability assay.

[86] = system: CAL-51; test: cells; settings: Homo sapiens
Description: SANGER: Inhibition of human CAL-51 cell growth in a cell viability assay.

[87] = system: CAL-62; test: cells; settings: Homo sapiens
Description: SANGER: Inhibition of human CAL-62 cell growth in a cell viability assay.

[88] = system: TE-6; test: cells; settings: Homo sapiens
Description: SANGER: Inhibition of human TE-6 cell growth in a cell viability assay.

[89] = system: TE-8; test: cells; settings: Homo sapiens
Description: SANGER: Inhibition of human TE-8 cell growth in a cell viability assay.

[90] = system: UACC-893; test: cells; settings: Homo sapiens
Description: SANGER: Inhibition of human UACC-893 cell growth in a cell viability assay.

[91] = system: VMRC-RCZ; test: cells; settings: Homo sapiens
Description: SANGER: Inhibition of human VMRC-RCZ cell growth in a cell viability assay.

[92] = system: YAPC; test: cells; settings: Homo sapiens
Description: SANGER: Inhibition of human YAPC cell growth in a cell viability assay.

[93] = system: COLO-320-HSR; test: cells; settings: Homo sapiens
Description: SANGER: Inhibition of human COLO-320-HSR cell growth in a cell viability assay.

Compound: NC(=O)[C@@H](CCC(F)(F)F)N(Cc1ccc(-c2ncon2)cc1F)S(=O)(=O)c1ccc(Cl)cc1
- IC50 [1]: 1050 nM
- IC50 [2]: 426 nM
- IC50 [3]: 322 nM

Compound: CNC(=O)c1ccccc1Sc1ccc2c(/C=C/c3ccccn3)n[nH]c2c1 [AXITINIB]
- IC50 [4]: > 2000 nM
- IC50 [5]: 1410 nM
- IC50 [6]: > 2000 nM
- IC50 [7]: 168 nM
- IC50 [8]: 1110 nM
- IC50 [9]: 421 nM
- IC50 [10]: > 2000 nM
- IC50 [11]: > 2000 nM
- IC50 [12]: 424 nM
- IC50 [13]: > 2000 nM
- IC50 [14]: 1390 nM
- IC50 [15]: > 2000 nM
- IC50 [16]: 1010 nM
- IC50 [17]: 1100 nM
- IC50 [18]: 1110 nM
- IC50 [19]: > 2000 nM

Compound: CC[C@@H]1C(=O)N(C)c2cnc(Nc3ccc(C(=O)NC4CCN(C)CC4)cc3OC)nc2N1C1CCCC1 [BI-2536]
- IC50 [20]: 120 nM
- IC50 [21]: 17.7 nM
- IC50 [22]: 88.2 nM
- IC50 [23]: 226 nM

Compound: O=C(CCCCCCC(=O)Nc1ccccc1)NO [VORINOSTAT]
- IC50 [24]: 7.73 µM
- IC50 [25]: 1560 nM
- IC50 [26]: 2860 nM
- IC50 [5]: 839 nM
- IC50 [27]: 2150 nM
- IC50 [28]: 2160 nM
- IC50 [8]: 1550 nM
- IC50 [29]: 833 nM
- IC50 [30]: 2180 nM
- IC50 [31]: 2310 nM
- IC50 [32]: > 10 µM
- IC50 [33]: 4.88 µM
- IC50 [34]: 806 nM
- IC50 [35]: 1890 nM
- IC50 [36]: 2130 nM
- IC50 [37]: 1650 nM
- IC50 [38]: 2270 nM
- IC50 [39]: 2310 nM
- IC50 [40]: 1690 nM
- IC50 [41]: 2170 nM
- IC50 [42]: 2320 nM
- IC50 [43]: 1850 nM
- IC50 [44]: 174 nM
- IC50 [45]: 2900 nM
- IC50 [46]: 2150 nM
- IC50 [47]: 823 nM
- IC50 [48]: 2240 nM
- IC50 [49]: 1030 nM
- IC50 [50]: 739 nM
- IC50 [51]: 7.6 µM
- IC50 [52]: 2280 nM
- IC50 [53]: > 10 µM
- IC50 [54]: 1550 nM
- IC50 [55]: 2870 nM
- IC50 [56]: > 10 µM
- IC50 [57]: 1020 nM
- IC50 [58]: 2190 nM
- IC50 [59]: > 10 µM
- IC50 [60]: 2230 nM
- IC50 [61]: 3.55 µM
- IC50 [62]: 4.88 µM
- IC50 [63]: 1870 nM
- IC50 [64]: 1540 nM
- IC50 [65]: 836 nM
- IC50 [66]: 2290 nM
- IC50 [67]: 832 nM
- IC50 [68]: 794 nM
- IC50 [69]: > 10 µM
- IC50 [70]: 809 nM
- IC50 [71]: 988 nM
- IC50 [72]: 4.94 µM
- IC50 [73]: 2890 nM
- IC50 [74]: 4.86 µM
- IC50 [75]: 2180 nM
- IC50 [76]: 791 nM
- IC50 [77]: 2320 nM
- IC50 [78]: 2870 nM
- IC50 [79]: 1020 nM
- IC50 [80]: 401 nM
- IC50 [81]: 2260 nM
- IC50 [82]: 740 nM
- IC50 [83]: > 10 µM
- IC50 [84]: 2210 nM
- IC50 [85]: 2240 nM
- IC50 [86]: 2170 nM
- IC50 [87]: 3.55 µM
- IC50 [88]: 4.94 µM
- IC50 [89]: 2160 nM
- IC50 [90]: > 10 µM
- IC50 [91]: > 10 µM
- IC50 [92]: > 10 µM
- IC50 [93]: 1880 nM
